The subject of data set [1] is Panc1 cells. Type of data set: cell-based, human. The method, then: FIG. 18. Chart showing viability of Panc1 cells. Vertical axis: viability as a percentage of the viability of mock-transfected cells, 72 hours following transfection with the indicated siRNA. Dotted line indicates 50% reduction in viability. For all the differences, p<0.05 relative to the mock-transfected cells.
The effect of siRNA-mediated down-regulation of EMT-related genes on viability of Panc1 cancer cells was measured as follows: siRNAs targeting the indicated genes, namely SLUG (SNAI2), SNAI1 TWIST, Zeb1, Zeb2, Goosecoid, and E12 (TCF3), were designed and synthetized by IDT-Syntezza, using 2 different siRNA's per target (Table 3). Panc1 cells were transfected with the siRNAs using Lipofectamine®. 72 hrs post-transfection, cell viability was tested by Methylene blue (MB) assay. Gemzar® was used as a positive control for cell killing.

Data set [2] relates to K-ras mRNA. Conditions: read-out: K-ras mRNA levels, half-maximal inhibitory concentration (IC50); Panc1 cells transfected; Real-Time PCR, HPRT and UBC endogenous controls. The method, then:
Panc1 cells, human pancreatic carcinoma cells that carry the […] in the K-ras gene, were mock-transfected or transfected with siG12D or control scrambled siRNA (si-scr). The relative K-ras mRNA levels were assessed by Real-Time PCR, with Hypoxantine PhosphoRybosyl Transferase (HPRT) and Ubiquitin C (UBC) used as endogenous controls.
On the technique in general: In qPCR the cycle at which signal appears reflects the starting amount.

Data set [3] has as its system normal mice. Put plainly: Toxicity study of LODER-driven siRNA in normal mice. Type of data set: in vivo. The note with it: intraperitoneally injected. The method, then:
(§1) To study the toxic potential of the LODER-driven siRNA, we compared the effect of the siG12D LODER (16, 32 and 64 μg siG12D/kg weight) to that of the empty LODER and to sham-operated or untreated animals. LODERs were implanted into the pancreas of normal mice and rats, both males and females of both species. In parallel, the same and higher doses of siG12D were intraperitoneally injected into normal mice and rats (16, 160 and 320 μg siG12D/kg weight). The duration of this study was 2 weeks in mice and 8 weeks in rats. […] Based on the lack of adverse reaction following siRNA treatment, the maximum dose of 0.32 mg siRNA/kg body weight was considered as not constituting an acute toxicity risk.

Data set [4] relates to normal rats. As to the kind of experiment: Toxicity study of LODER-driven siRNA in normal rats. It is filed as in vivo. Conditions: intraperitoneally injected. The protocol: as §1
Data set [5] relates to PancO2 cell. As to the kind of experiment: PancO2 cell growth in vitro. It is filed as cell-based, mouse.
Data set [6] concerns Akt. Put plainly: Orthotopic Panc1-LUC tumors, Akt immunohistochemistry. Conditions: 39 days post-treatment, IH. It is filed as in vivo, human.
Experimental: For this purpose, Panc1-LUC or Capan1-LUC cells were injected into the tail of the mouse pancreas via an incision. Tumor development was assessed by in vivo Luciferase activity. […] Two LODERs were stitched to the pancreatic tumor via a laparotomy.
Here, tumor tissues were tested from mice bearing pancreatic Panc1-LUC-derived tumors from 4 treatment groups: untreated, injected with siG12D or implanted with empty LODERs or siG12D LODERs. Thirty nine days post-treatment, we performed IH analysis of tumor tissues for Akt and ERK.
The test system of data set [7] is Panc1 cells. As to the kind of experiment: Migration assay (modified Boyden chamber). Type of data set: cell-based, human. The note with it: transfected cells, relative to untreated cells.
Data set [8] has as its system Panc-1 cells. As to the kind of experiment: Scratch assay. It is filed as cell-based, human. The note with it: after 24 hours, light microscopy. The protocol:
FIG. 7. siG12D reduces EMT in Panc1 cells. A. Migration assay. Panc-1 cells were transfected with siG12D or non-targeting control (scrambled) or were treated with TGFβ (positive control). The migration ability was assessed using a modified Boyden chamber assay. The percentage of migrated cells relative to untreated cells is presented. B. Scratch assay. Panc-1 cells were mock-transfected or transfected in vitro with scrambled siRNA or siG12D, then were seeded in 6 W plates. After 24 hours, the cells were reseeded in 24 W plates to form a confluent culture. One day after reseeding, the cells were scratched with a plastic tip. […]
FIG. 8. Light microscopy images of migration of siG12D-DDD treated cells in a scratch assay, showing the inhibitory effect of siG12D on cellular migration.
In order to study the effects of siG12D on the EMT process and its consequent increased cellular migration and motility, we conducted a series of experiments in which we examined different aspects of this process. We analyzed the migration characteristics of Panc1 cells following transfection with siG12D or scrambled siRNA, using the scratch and transwell-migration assays. TGF-β was used as a positive control. […] To test migration through a scratch assay. […]

The subject of data set [9] is Zeb1, Slug, E-Cadherin. As to the kind of experiment: Expression of genes characteristic of EMT. Type of data set: cell-based, human. The note with it: in vitro, normalized to the untreated cells. From the text: FIG. 9. Effect of the siG12DDDD on expression levels of metastasis-facilitating genes. Expression levels are normalized to the untreated cells.
Treatment of siG12D in vitro was followed by measurement of genes whose expression (high or low) is characteristic of EMT.

Data set [10] deals with P-Erk. Put plainly: Western blot of KRAS downstream effector P-Erk. Type of data set: cell-based, human. Conditions: 36 hrs after transfection, normalized to β-actin. From the text: (§2) FIG. 19. Treatment with anti-k-ras siRNA reduces levels of downstream effector proteins. Panc1 cells were left untreated (u/t) or transiently transfected with siG12D, non-targeting scrambled siRNA (si-scr) or mock transfected. A. Shown are representative blots of KRAS, P-Erk, P-Akt, and β-actin. B. Quantitation of protein expression, expressed as average±S.E.M. Numbers were normalized to the level of β-actin, then the resulting number was normalized to the expression in scrambled siRNA-transfected cells, which was set as 100%. Student's t-test was used to calculate(p) compared to mock-transfected cells.
(§3) To confirm the specific action of siG12D on the K-ras signaling pathway, KRAS, level of activation of the KRAS downstream effectors ERK and Akt was measured following treatment with siG12D. […] 36 hrs after transfection, cells were lysed and relative levels of KRAS, P-Erk and P-Akt proteins were assessed by Western blot analysis. […]
(§4) Western blot assays were carried by homogenizing cells in lysis buffer A (0.25M sucrose, 20 mM Tris pH 7.6, 1.5 mM MgCl2, 10% glycerol, 1 mM EDTA and “cOmplete mini” protein inhibitor cocktail (Roche Diagnostics)), incubated on ice for 10 min, centrifuged at 12,000 rpm for 15 min at 4° C., and supernatants were collected. […] Results are expressed as ratio of protein of interest/β-actin to correct for amount of protein loaded in each sample.

Data set [11] has as its system P-Akt. As to the kind of experiment: Western blot of KRAS downstream effector P-Akt. Type of data set: cell-based, human. Conditions: 36 hrs after transfection, normalized to β-actin.
Text: as §2, §3, §4
Background: A western blot detects proteins with antibodies after separation by electrophoresis.

Data set [12] deals with Panc1 cells. Put plainly: Cell viability by Methylene Blue test, siRNA alone and with Gemzar. It is filed as cell-based, human. The note with it: 72 h; 1 hr of treatment with 10 μM Gemzar after transfection. The protocol:
FIG. 15. Gemzar® enhances siG12D-DDD effect. Panc1 cells were transfected using Lipofectamine™ with unmodified and modified siG12D and a scrambled (non-targeting) siRNA control molecule or were mock transfected (no siRNA). Cell viability was assessed 72 hrs post-transfection by the Methylene Blue (MB) test. Additional groups were transfected as described above, followed by 1 hr of treatment with 10 μM Gemzar®. The numbers 1-4 in the last column relate to the percent of inhibition of cellular growth, wherein the inhibition seen with the unmodified siRNA was assigned the value of 100%. 4, 3, 2, and 1 refer respectively to 75-100%, 50-75%, 25-50%, and 0-25% of the inhibition seen with the unmodified siRNA.
Experimental procedure: Panc1 cells were transfected using Lipofectamine™ with unmodified and modified siG12D and a scrambled (non-targeting) siRNA control molecule or were mock transfected (no siRNA). Cell viability was assessed 72 hrs post-transfection by the Methylene Blue (MB) test. Additional groups were transfected as described above, followed by 1 hr of treatment with 10 μM Gemzar®. At the exemplary time point of 72 h, Gemzar® enhanced the effect of siG12D by nearly 10% (FIG. 15). […] Other time points, for example 48h, 72 h, 96 h and 120 h, may be utilized in additional studies.

On to “TWIST-2: siRNA targeting TWIST; sense ggugugcguccagccguugdTdT, antisense caacggcuggacgcacaccdTdT; SEQ ID No's 108-109 (sense GGUGUGCGUCCAGCCGUUGTT; antisense CAACGGCUGGACGCACACCTT; DNA at 20, 21, other sugars and backbone not given here)”, for which the reduction in viability result in [1] was “greater than 50%”.

Turning to “Goosecoid-1: siRNA targeting Goosecoid; sense agcauguucagcaucgacadTdT, antisense ugucgaugcugaacaugcudTdT; SEQ ID No's 127-128 (sense AGCAUGUUCAGCAUCGACATT; antisense UGUCGAUGCUGAACAUGCUTT; DNA at 20, 21, other sugars and backbone not given here)”, in data set [1], the reduction in viability is listed as ~50%.

In the case of “siG12D: siRNA against K-ras G12D; sense GUUGGAGCUGAUGGCGUAGdTdT, antisense CUACGCCAUCAGCUCCAACdTdT (SEQ ID No: 41-42) (sense GUUGGAGCUGAUGGCGUAGTT; antisense CUACGCCAUCAGCUCCAACTT; DNA at 20, 21, other sugars and backbone not given here)”, the IC50 in [2] worked out at 0.067 nM. For the same molecule, the “maximum dose considered as not constituting an acute toxicity risk” value in data set [3] and in [4] was 0.32 mg siRNA/kg body weight in each case. The PancO2 cell growth entry in data set [5] is on record as “inhibited PancO2 cell growth to a similar extent as Panc1 cells”. Moreover, the Akt phosphorylation result in data set [6] is reported as “induced”. The “inhibition of Panc1 migration” value in data set [7] is given as “more than 30%”. In addition, in [8], the “migration in scratch assay” value is given as “barely migrated”. For the same molecule, the “expression of epithelial genes (E-Cadherin)” value in data set [9] is recorded as “augmented expression”. In addition, the “expression of mesenchymal genes (Zeb1 and Slug)” value in data set [9] is “reduced expression”. For the same molecule, the reduction in viability in [1] was ~50%. Also, the “level of P-Erk” value in data set [10] is on record as “decreased”. Besides, the “level of P-Akt” value in data set [11] is on record as “decreased”.

As for “SNAI1-2: siRNA targeting SNAI1; sense augcacauccgaagccacadTdT, antisense uguggcuucggaugugcaudTdT; SEQ ID No's 124-125”, the reduction in viability entry in data set [1] is “greater than 50%”.

Take “TCF3-1: siRNA targeting E12 (TCF3); sense cuccuggacuucagcaugadTdT, antisense ucaugcugaaguccaggagdTdT; SEQ ID No's 131-132 (sense CUCCUGGACUUCAGCAUGATT; antisense UCAUGCUGAAGUCCAGGAGTT; DNA at 20, 21, other sugars and backbone not given here)”: the reduction in viability result in data set [1] is “greater than 50%”.

For the molecule `Nc1ccn([C@@H]2O[C@H](CO)[C@@H](O)C2(F)F)c(=O)n1` [Gemzar®, 2′,2′-difluorodeoxycytidine], the “enhancement of the effect of siG12D on cell viability” value in data set [12] is ~10%.

In the case of “Zeb1-2: siRNA targeting Zeb1; sense cagguguaagcgcagaaagdTdT, antisense cuuucugcgcuuacaccugdTdT; SEQ ID No's 112-113 (sense CAGGUGUAAGCGCAGAAAGTT; antisense CUUUCUGCGCUUACACCUGTT; DNA at 20, 21, other sugars and backbone not given here)”, the reduction in viability in data set [1] is given as ~50%.

For the molecule “SNAI2-2: siRNA targeting SLUG (SNAI2); sense cuggucaagaagcauuucadTdT, antisense ugaaaugcuucuugaccagdTdT; SEQ ID No's 104-105 (sense CUGGUCAAGAAGCAUUUCATT; antisense UGAAAUGCUUCUUGACCAGTT; DNA at 20, 21, other sugars and backbone not given here)”, the reduction in viability in data set [1] is recorded as ~50%.

(Values after patent US20140314854A1, “METHODS AND COMPOSITIONS FOR RNAi-BASED CANCER TREATMENT” (Silenseed Ltd., priority 2013, published 2014).)
